Measurements from patent publication US20260365663A1, “EMOPAMIL-BINDING PROTEIN INHIBITORS AND USES THEREOF” (BIOGEN MA INC., priority 2022, published 2026).
pIC50: −log10 of the molar value.

Each compound was assayed against T1, EBP (Homo sapiens, UniProt Q15125) (assay: EBP Functional Assay (EBP immunoaffinity LC-MS assay)). Settings: not given.
T1 construct: HEK293T cells were utilized as the source of EBP enzyme; endogenous in cells; host or cells: HEK293T
Type: biochemical
Method: The EBP immunoaffinity (IA) LC-MS assay measures the potency of small molecule inhibitors of EBP by quantifying their concentration-dependent changes in the enzyme's substrate and product using liquid chromatography atmospheric pressure chemical ionization multiple reaction monitoring mass spectrometry (LC-APCI MRM MS). HEK293T cells were utilized as the source of EBP enzyme. The enzyme was incubated with the small molecule inhibitors at variable concentrations for 30 min. Deuterated form of EBP substrate, zymosterol-d5 (Avanti Polar Lipids, Cat #700068P-1 mg), was then added and the plate was incubated at 37 °C for 4 h. Finally, the sterol isomers were extracted and injected to LC-APCI MRM MS. MRM transition used for the quantification for both zymosterol and dihydrolathosterol (substrate and product of EBP enzymatic reaction, respectively) is 372.3-203.2, CE 30 and DP 80 in positive ion mode. Percent conversion of the zymosterol-d5 to dehydrolathosterol-d5 was used to derive IC50 curves. Tasin-1 (1′-[(4-Methoxyphenyl)sulfonyl]-4-methyl-1,4′-bipiperidine, CAS 792927-06-1) was used as the reference small molecule inhibitor.
Percent conversion versus the compound concentration data were fit to the following 4-parameter logistic model to generate IC50 curves: […]

T1 sequence (Q15125 whole entry): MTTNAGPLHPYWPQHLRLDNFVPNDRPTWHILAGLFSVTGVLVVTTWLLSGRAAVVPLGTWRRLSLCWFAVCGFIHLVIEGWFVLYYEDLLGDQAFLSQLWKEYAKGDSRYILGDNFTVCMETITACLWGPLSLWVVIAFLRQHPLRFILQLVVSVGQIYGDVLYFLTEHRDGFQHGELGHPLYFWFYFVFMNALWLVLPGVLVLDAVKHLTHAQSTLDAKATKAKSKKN

Row | Structure (SMILES) | pIC50
1 | COc1ccc(S(=O)(=O)N2CC3(CCC(N4CCOCC4)C3)C2)c(C)n1 (stereo not drawn) [Example 48, 4-(2-((6-methoxy-2-methylpyridin-3-yl)sulfonyl)-2-azaspiro[3.4]octan-6-yl)morpholine] | > 7.00
2 | Cc1nc(C(F)(F)F)ncc1S(=O)(=O)N1CC2(CC(N(C)C3CCOCC3)C2)C1 [Example 80, N-methyl-2-((4-methyl-2-(trifluoromethyl)pyrimidin-5-yl)sulfonyl)-N-(tetrahydro-2H-pyran-4-yl)-2-azaspiro[3.3]heptan-6-amine] | > 7.00
3 | Cc1cc(S(=O)(=O)N2CC3(CCC(N4CCOCC4)C3)C2)n(C)n1 (stereo not drawn) [Example 36, 4-(2-((1,3-Dimethyl-1H-pyrazol-5-yl)sulfonyl)-2-azaspiro[3.4]octan-6-yl)morpholine] | 6.30 to 7.00
4 | Cc1nc(C(F)(F)F)ncc1S(=O)(=O)N1CC2(CC(N3CC4(COC4)C3)C2)C1 [Example 17, 6-(2-((4-Methyl-2-(trifluoromethyl)pyrimidin-5-yl)sulfonyl)-2-azaspiro[3.3]heptan-6-yl)-2-oxa-6-azaspiro[3.3]heptane] | < 5.52

Next, values leading:

Row | pIC50 | Structure (SMILES)
5 | > 7.00 | COc1ccc(S(=O)(=O)N2CC3(CCC(N4CCOCC4)C3)C2)c(C(F)(F)F)n1 (stereo not drawn) [Example 39, 4-(2-((6-Methoxy-2-(trifluoromethyl)pyridin-3-yl)sulfonyl)-2-azaspiro[3.4]octan-6-yl)morpholine]
6 | > 7.00 | Cc1ccc(S(=O)(=O)N2CC3(CCC(N4CCOCC4)C3)C2)c(C)c1 (stereo not drawn) [Example 45, 4-(2-((2,4-Dimethylphenyl)sulfonyl)-2-azaspiro[3.4]octan-6-yl)morpholine]
7 | > 7.00 | Cc1nc(C(F)(F)F)ccc1S(=O)(=O)N1CC2(CCC(N3CCOCC3)C2)C1 (stereo not drawn) [Example 40, 4-(2-((2-Methyl-6-(trifluoromethyl)pyridin-3-yl)sulfonyl)-2-azaspiro[3.4]octan-6-yl)morpholine]
8 | 5.52 to 6.30 | Cn1nc(C(F)(F)F)cc1S(=O)(=O)N1CC2(CC(N3CC4(COC4)C3)C2)C1 [Example 14, 6-(2-((1-Methyl-3-(trifluoromethyl)-1H-pyrazol-5-yl)sulfonyl)-2-azaspiro[3.3]heptan-6-yl)-2-oxa-6-azaspiro[3.3]heptane]
9 | > 7.00 | COc1ccc(S(=O)(=O)N2CC3(CC(N4CCC(C)CC4)CO3)C2)c(C)n1 (stereo not drawn) [Example 56, 2-((6-Methoxy-2-methylpyridin-3-yl)sulfonyl)-7-(4-methylpiperidin-1-yl)-5-oxa-2-azaspiro[3.4]octane]
10 | 6.30 to 7.00 | Cc1cc(S(=O)(=O)N2CC3(CC(N4CCC(C)CC4)CO3)C2)n(C)n1 (stereo not drawn) [Example 55, 2-((1,3-Dimethyl-1H-pyrazol-5-yl)sulfonyl)-7-(4-methylpiperidin-1-yl)-5-oxa-2-azaspiro[3.4]octane]

Same assay, conditions: HEK293T cells as source of EBP enzyme; zymosterol-d5 substrate; inhibitor 30 min, then 37 °C for 4 h; percent conversion to dehydrolathosterol-d5 by LC-APCI MRM MS; read-out: EBP Functional Assay

Row | Structure (SMILES) | pIC50
11 | Cn1nc(C(F)(F)F)cc1S(=O)(=O)N1CC2(CC(N3CCOCC3)C2)C1 [Example 10, 4-(2-((1-Methyl-3-(trifluoromethyl)-1H-pyrazol-5-yl)sulfonyl)-2-azaspiro[3.3]heptan-6-yl)morpholine] | 6.30 to 7.00
12 | Cc1nc(C(F)(F)F)ncc1S(=O)(=O)N1CC2(CC(NC3CCOCC3)C2)C1 [Example 76, 2-((4-methyl-2-(trifluoromethyl)pyrimidin-5-yl)sulfonyl)-N-(tetrahydro-2H-pyran-4-yl)-2-azaspiro[3.3]heptan-6-amine] | 6.30 to 7.00
13 | Cc1nc(C(F)(F)F)ccc1S(=O)(=O)N1CC2(CC(NC3COC3)C2)C1 [Example 8, 2-((2-Methyl-6-(trifluoromethyl)pyridin-3-yl)sulfonyl)-N-(oxetan-3-yl)-2-azaspiro[3.3]heptan-6-amine] | 5.52 to 6.30
14 | Cn1nc(C(F)(F)F)cc1S(=O)(=O)N1CC2(CC[C@@H](N3CCOCC3)C2)C1 [Example 49, (R)-4-(2-((1-Methyl-3-(trifluoromethyl)-1H-pyrazol-5-yl)sulfonyl)-2-azaspiro[3.4]octan-6-yl)morpholine] | 6.30 to 7.00
15 | Cc1nc(C(F)(F)F)ncc1S(=O)(=O)N1CC2(CC(N(C)C3CC4(COC4)C3)C2)C1 (stereo not drawn) [Example 82, N-methyl-2-((4-methyl-2-(trifluoromethyl)pyrimidin-5-yl)sulfonyl)-N-(2-oxaspiro[3.3]heptan-6-yl)-2-azaspiro[3.3]heptan-6-amine] | > 7.00
16 | Cc1cc(S(=O)(=O)N2CC3(CC[C@H](N4CCOCC4)C3)C2)n(C)n1 (single isomer, unassigned) [Example 67] | 5.52 to 6.30
17 | Cc1nc(C(C)(F)F)ccc1S(=O)(=O)N1CC2(CC(N(C)C3CCOCC3)C2)C1 [Example 72, 2-((6-(1,1-difluoroethyl)-2-methylpyridin-3-yl)sulfonyl)-N-methyl-N-(tetrahydro-2H-pyran-4-yl)-2-azaspiro[3.3]heptan-6-amine] | > 7.00
18 | Cc1nc(Cl)ccc1S(=O)(=O)N1CC2(CC[C@@H](N3CCOCC3)C2)C1 (single isomer, unassigned) [Example 64] | > 7.00
19 | CC1CCN(C2CC3(C2)CN(S(=O)(=O)c2ccc(OC(F)F)cc2)C3)CC1 [Example 20, 2-((4-(Difluoromethoxy)phenyl)sulfonyl)-6-(4-methylpiperidin-1-yl)-2-azaspiro[3.3]heptane] | 5.52 to 6.30
20 | Cc1nc(C(F)(F)F)ccc1S(=O)(=O)N1CC2(CC[C@H](N3CCOCC3)C2)C1 (single isomer, unassigned) [Example 61] | 6.30 to 7.00
21 | Cn1nc(C(F)(F)F)cc1S(=O)(=O)N1CC2(CC(NC3COC3)C2)C1 [Example 13, 2-((1-Methyl-3-(trifluoromethyl)-1H-pyrazol-5-yl)sulfonyl)-N-(oxetan-3-yl)-2-azaspiro[3.3]heptan-6-amine] | 5.52 to 6.30
22 | Cc1nc(C(F)(F)F)ccc1S(=O)(=O)N1CC2(CC(N3CCOCC3)C2)C1 [Example 5, 4-(2-((2-Methyl-6-(trifluoromethyl)pyridin-3-yl)sulfonyl)-2-azaspiro[3.3]heptan-6-yl)morpholine] | 6.30 to 7.00
23 | Cc1cc(C(F)(F)F)ncc1S(=O)(=O)N1CC2(CC[C@@H](N3CCOCC3)C2)C1 (single isomer, unassigned) [Example 62] | > 7.00
24 | Cc1cnc(S(=O)(=O)N2CC3(CCC(N4CCOCC4)C3)C2)c(C)c1 (stereo not drawn) [Example 29, 4-(2-((3,5-Dimethylpyridin-2-yl)sulfonyl)-2-azaspiro[3.4]octan-6-yl)morpholine] | 5.52 to 6.30
25 | Cc1nc(Cl)ccc1S(=O)(=O)N1CC2(CC[C@H](N3CCOCC3)C2)C1 (single isomer, unassigned) [Example 65] | 6.30 to 7.00

The next lines start with the values.

Row | pIC50 | Structure (SMILES)
26 | > 7.00 | Cc1cc(C)c(S(=O)(=O)N2CC3(CCC(N4CCOCC4)C3)C2)c(C)c1 (stereo not drawn) [Example 43, 4-(2-(Mesitylsulfonyl)-2-azaspiro[3.4]octan-6-yl)morpholine]
27 | 5.52 to 6.30 | N#Cc1cc(F)cc(S(=O)(=O)N2CC3(CC(N4CC5(COC5)C4)CO3)C2)c1 (stereo not drawn) [Example 28, 3-((7-(2-Oxa-6-azaspiro[3.3]heptan-6-yl)-5-oxa-2-azaspiro[3.4]octan-2-yl)sulfonyl)-5-fluorobenzonitrile]
28 | 6.30 to 7.00 | Cn1nc(C(F)(F)F)cc1S(=O)(=O)N1CC2(CCC(N3CCOCC3)C2)C1 (stereo not drawn) [Example 35, 4-(2-((1-Methyl-3-(trifluoromethyl)-1H-pyrazol-5-yl)sulfonyl)-2-azaspiro[3.4]octan-6-yl)morpholine]
29 | 6.30 to 7.00 | Cc1cc(S(=O)(=O)N2CC3(CC[C@@H](N4CCOCC4)C3)C2)n(C)n1 (single isomer, unassigned) [Example 66]
30 | 5.52 to 6.30 | N#Cc1ccc(F)c(S(=O)(=O)N2CC3(CC(NC4CCOCC4)CO3)C2)c1 (stereo not drawn) [Example 27, 4-Fluoro-3-((7-((tetrahydro-2H-pyran-4-yl)amino)-5-oxa-2-azaspiro[3.4]octan-2-yl)sulfonyl)benzonitrile]
31 | 6.30 to 7.00 | COc1ncc(C)cc1S(=O)(=O)N1CC2(CC(NC3CCC(F)(F)CC3)CO2)C1 (stereo not drawn) [Example 24, N-(4,4-Difluorocyclohexyl)-2-((2-methoxy-5-methylpyridin-3-yl)sulfonyl)-5-oxa-2-azaspiro[3.4]octan-7-amine]
32 | 6.30 to 7.00 | Cc1cc(C(F)(F)F)ncc1S(=O)(=O)N1CC2(CC[C@H](N3CCOCC3)C2)C1 (single isomer, unassigned) [Example 63]
33 | > 7.00 | Cc1nc(C(C)(F)F)ccc1S(=O)(=O)N1CC2(CC(N(C)C3CC4(COC4)C3)C2)C1 (stereo not drawn) [Example 74, 2-((6-(1,1-difluoroethyl)-2-methylpyridin-3-yl)sulfonyl)-N-methyl-N-(2-oxaspiro[3.3]heptan-6-yl)-2-azaspiro[3.3]heptan-6-amine]
34 | 5.52 to 6.30 | COc1ccc(S(=O)(=O)N2CC3(CCC(N4CC5(COC5)C4)C3)C2)c(C)n1 (stereo not drawn) [Example 30, 6-(2-((6-Methoxy-2-methylpyridin-3-yl)sulfonyl)-2-azaspiro[3.4]octan-6-yl)-2-oxa-6-azaspiro[3.3]heptane]
35 | > 7.00 | CN(C1CCC(F)(F)CC1)C1COC2(C1)CN(S(=O)(=O)c1cc(C#N)ccc1F)C2 (stereo not drawn) [Example 59, 3-((7-((4,4-Difluorocyclohexyl)(methyl)amino)-5-oxa-2-azaspiro[3.4]octan-2-yl)sulfonyl)-4-fluorobenzonitrile]
36 | > 7.00 | Cc1nc(C(C)(F)F)ccc1S(=O)(=O)N1CC2(CC(NC3CCOCC3)C2)C1 [Example 2, 2-((6-(1,1-Difluoroethyl)-2-methylpyridin-3-yl)sulfonyl)-N-(tetrahydro-2H-pyran-4-yl)-2-azaspiro[3.3]heptan-6-amine]
